These results are taken from patent US20240122945A1, “USE OF NEUROACTIVE STEROIDS FOR TREATMENT OF SEXUAL DYSFUNCTION” (Sage Therapeutics, Inc., priority 2021, published 2024).

The test system of the data set is Patients With Major Depressive Disorder. Briefly: Phase 3 MOUNTAIN study: sexual functioning by Changes in Sexual Functioning Questionnaire-14 (CSFQ-14), post-hoc analysis. The format is in vivo, human. Particulars: for Odds Ratio for Sexual Dysfunction (Compound (1) relative to placebo): GEE model. The procedure: Results from the multicenter, double-blind, randomized, placebo-controlled Phase 3 MOUNTAIN trial (NCT03672175) evaluating the efficacy, safety, and tolerability of 14-day treatment with 20 mg or 30 mg of Compound (1) compared with placebo (PBO) have been previously presented (Clayton, A. H. Presented at SOBP 2020 Virtual Meeting).
This analysis assessed the effect of 30 mg of Compound (1) treatment compared with PBO on sexual function, as measured by the Changes in Sexual Functioning Questionnaire-14 (CSFQ-14), in the MOUNTAIN trial.
Adult outpatients (18-65 years; n=581) with MDD (HAMD-17 total score≥22 and MADRS total score≥32) were randomized 1:1:1 to Compound (1) 20 mg (data not shown), Compound (1) 30 mg, or PBO, once-nightly for 2 weeks, with follow-up through Day 42 (see FIG. 1 for Study Design). Standard of care antidepressants that had been taken at the same dose for ≥60 days prior to Day 1 of the trial were permitted. Exclusion criteria included attempted suicide associated with the current depressive episode; treatment-resistant depression, and medical history of bipolar disorder, schizophrenia, and/or schizoaffective disorder.
Exploratory, post-hoc analyses included evaluation of sexual functioning using the 14-item; self-report CSFQ-14 at baseline, Day 15, 28, and 42.
Male and female sexual functioning was evaluated as an exploratory endpoint with the validated, 14-item, patient-reported CSFQ-14 scores at baseline, Day 15, Day 28, and Day 42. CSFQ-14 also has 5 sub-scales that measure pleasure, desire/frequency, desire/interest, arousal/excitement, and orgasm/completion, which were also evaluated. Sexual dysfunction was defined as a CSFQ-14TS of ≤41 for females and ≤47 for males. Mixed model for repeated measure and generalized estimating equation were used for analysis on patients with a baseline HAMD-17 total score≥24 (n=323).
The model used was a generalized estimating equation (GEE) for binary response model, with factors for treatment (Compound (1) 30 mg or placebo), baseline CSFQ-14 total score, antidepressant use at baseline (Yes or No), assessment time point, and time point-by-treatment interaction with exchangeable covariance structure.
Odds ratio is the estimate of the odds of having CSFQ sexual dysfunction for subjects treated with Compound (1) relative to that for subjects treated with placebo.

For `C[C@@]1(O)CC[C@H]2[C@H](CC[C@@H]3[C@@H]2CC[C@]2(C)[C@@H](C(=O)Cn4cc(C#N)cn4)CC[C@@H]32)C1` [Compound (1), 1-(2-((3R,5R,8R,9R,10S,13S,14S,17S)-3-hydroxy-3,13-dimethylhexadecahydro-1H-cyclopenta[a]phenanthren-17-yl)-2-oxoethyl)-1H-pyrazole-4-carbonitrile], the “difference vs PBO in percentage of male patients with sexual dysfunction across individual CSFQ-14 subscales” value (30 mg, Days 15, 28, 42, exception: arousal/excitement at Day 42 (FIG. 5)) is “no significant differences”. Moreover, where the note is “30 mg, Days 15, 28, 42, exception: desire/frequency at Day 15 and orgasm/completion at Day 28 (FIG. 4)”, the “difference vs PBO in percentage of female patients with sexual dysfunction across individual CSFQ-14 subscales” value was “no significant differences”. Moreover, the “difference vs PBO in percentage of patients with sexual dysfunction in the individual CSFQ-14 subscales” value (30 mg, all patients) is listed as “no significant differences”. For the same compound, where the note is “30 mg, overall conclusion”, the treatment-emergent sexual dysfunction entry is listed as “not associated with treatment-emergent sexual dysfunction”. Moreover, the “impairment of sexual function compared to placebo during the trial” value (30 mg, through Day 42) is recorded as “No impairment of sexual function”. The “Odds Ratio for Sexual Dysfunction (Compound (1) relative to placebo)” value is, setting by setting: (Day 15, Men, 30 mg, CSFQ total score<=47 = sexual dysfunction) 0.72; (Day 15, Women, 30 mg, CSFQ total score<=41 = sexual dysfunction) 1.00; (Day 28, Men, 30 mg, CSFQ total score<=47 = sexual dysfunction) 1.07; (Day 28, Women, 30 mg, CSFQ total score<=41 = sexual dysfunction) 1.01; (Day 42, Men, 30 mg, CSFQ total score<=47 = sexual dysfunction) 0.88; (Day 42, Women, 30 mg, CSFQ total score<=41 = sexual dysfunction) 0.91. Also, the “percentage of all patients with sexual dysfunction as assessed by CSFQ-14TS thresholds” value (Day 42 (181/272), from 82.4% (266/323) at baseline, Compound (1) 30 mg- and PBO-treated patients together) is on record as 66.5%.
